In ChEMBL document CHEMBL5727751, “Use of aza-tryptanthrin derivatives as inhibitors of IDO1 and/or TDO” (2020):

Molecular target: Indoleamine 2,3-dioxygenase 1 (Homo sapiens, UniProt P14902)
Experiment: Indoleamine-2,3-Dioxygenase 1 Inhibitory Activity: Experimental method: IDO-1 can oxidatively cleave the indole ring of tryptophan to form N-formylkynurenine. Referring to the method in the literature (Eddy W. Yue, et al. J. Med. Chem. 2009, 52, 7364-7367), 20 nM IDO-1, 2 mM D-tryptophan, 20 mM ascorbic acid, 3.5M methyl blue and 0.2 mg/mL antioxidant enzyme were sequentially added to 50 mM potassium phosphate buffer at room temperature. Due to the formation of N-formylkynurenine, the reaction rate was recorded by the increasing absorbance of the solution at 321 nm. IC50 values were calculated using Prism GraphPad software.

Chain of Indoleamine 2,3-dioxygenase 1 (P14902 whole entry): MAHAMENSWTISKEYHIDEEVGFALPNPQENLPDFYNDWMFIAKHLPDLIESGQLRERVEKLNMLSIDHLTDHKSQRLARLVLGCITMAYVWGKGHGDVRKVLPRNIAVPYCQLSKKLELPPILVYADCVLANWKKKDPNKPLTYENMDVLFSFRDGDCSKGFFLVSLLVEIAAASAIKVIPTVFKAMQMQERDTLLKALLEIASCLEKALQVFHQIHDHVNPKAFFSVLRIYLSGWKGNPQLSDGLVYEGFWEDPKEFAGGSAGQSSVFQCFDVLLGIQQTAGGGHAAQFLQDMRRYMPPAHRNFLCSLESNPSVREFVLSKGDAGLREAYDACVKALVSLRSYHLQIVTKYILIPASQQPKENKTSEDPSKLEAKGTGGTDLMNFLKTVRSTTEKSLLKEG

| SMILES | IC50 [nM] |
| --- | --- |
| CN(C)C(=S)NN=C1c2cc([N+](=O)[O-])ccc2-n2c1nc1ncccc1c2=O | 1 to 100 |
| N=C(N)NN=C1c2cc([N+](=O)[O-])ccc2-n2c1nc1ncccc1c2=O | 1 to 100 |
| CN(C)CCON=C1c2cc([N+](=O)[O-])ccc2-n2c1nc1ncccc1c2=O | 1 to 100 |
| O=C1c2cc([N+](=O)[O-])ccc2-n2c1nc1ncccc1c2=O | 1 to 100 |
| NC(=S)NN=C1c2cc([N+](=O)[O-])ccc2-n2c1nc1ncccc1c2=O | 1 to 100 |
| O=C1c2cc(Cl)ccc2-n2c1nc1ncccc1c2=O | 1 to 100 |

Next, values leading:

| IC50 [nM] | SMILES |
| --- | --- |
| 1 to 100 | O=C1c2cc(OC(F)(F)F)ccc2-n2c1nc1ncccc1c2=O |
| 1 to 100 | O=C1c2cnccc2-n2c1nc1ncccc1c2=O |
| 1 to 100 | O=C1c2cc(F)ccc2-n2c1nc1ncccc1c2=O |
